Laboratory results from patent US20130183268A1, “DRUG COMBINATIONS WITH FLUORO-SUBSTITUTED OMEGA-CARBOXYARYL DIPHENYL UREA FOR THE TREATMENT AND PREVENTION OF DISEASES AND CONDITIONS” (BAYER HEALTHCARE LLC, priority 2010, published 2013).

Legend:
[1] = Metabolite profile, incubation of [14C]regorafenib with liver microsomes (man); format: in vitro ADME; details: [14C]regorafenib 20 μM, liver microsomes 0.5 mg/mL, 60 min
Experimental: (§1) N-oxide (M-2), hydroxymethyl (M-3), de-methylated (M-4) and N-oxide-demethylated (M-5) metabolites of the fluoro-substituted diaryl urea of Formula (I) are shown below. They were identified as metabolites of regorafenib in vitro upon incubation with liver enzymes of various mammalian species (man, dog, rat, mouse). Studies reveal that its metabolites show high protein binding in man and animal species (data not shown). [table]

[2] = Metabolite profile, incubation of [14C]regorafenib with liver microsomes (dog); format: in vitro ADME, Beagle dog; details: [14C]regorafenib 20 μM, liver microsomes 0.5 mg/mL, 60 min
[3] = Metabolite profile, incubation of [14C]regorafenib with liver microsomes (rat); format: in vitro ADME, Wistar rat; details: [14C]regorafenib 20 μM, liver microsomes 0.5 mg/mL, 60 min
Experimental: as §1

[4] = Metabolite profile, incubation of [14C]regorafenib with liver microsomes (mouse); format: in vitro ADME, NMRI mouse; details: [14C]regorafenib 20 μM, liver microsomes 0.5 mg/mL, 60 min
Experimental: as §1

[5] = Pharmacokinetics in patients after 160 mg regorafenib co-precipitate tablet; details: for AUC Day 21 / Cmax Day 21: analyte in plasma, 160 mg regorafenib co-precipitate tablet daily, day 21, n = 9, geometric mean; for systemic exposure: colon cancer patients, 160 mg coprecipitate tablets daily for 21 days; for fold increase in Cmax / fold increase in the AUC: continuous qd dosing for 19 days, in comparison to the first dose; for Fold change AUC / Fold change Cmax: day 21 versus day 1
[6] = analyte in plasma after 160 mg regorafenib co-precipitate tablet, day 1, n = 9, geometric mean

SMILES	% of radioactivity, Man [1] [%]	% of radioactivity, Beagle dog [2] [%]	% of radioactivity, Wistar rat [3] [%]	% of radioactivity, NMRI mouse [4] [%]	AUC Day 1 [5, 6] [ng·h/mL]	Cmax Day 1 [5, 6] [ng/mL]	AUC Day 21 [5] [ng·h/mL]	Cmax Day 21 [5] [ng/mL]	systemic exposure [5]	fold increase in Cmax [5] [fold]	fold increase in the AUC [5] [fold]	Fold change AUC [5]	Fold change Cmax [5]
CNC(=O)c1cc(Oc2ccc(NC(=O)Nc3ccc(Cl)c(C(F)(F)F)c3)c(F)c2)cc[n+]1[O-] [Example M-2, 4{4-[3-(4-chloro-3-trifluoromethylphenyl)-ureido]-3-fluorophenoxy}-1-hydroxy-pyridine-2-carboxylic acid methylamide]	29.7	3.6	5.4	26.9	24000	764	55400	3570	very similar to regorafenib	5	2	2.3	4.7
O=C(Nc1ccc(Cl)c(C(F)(F)F)c1)Nc1ccc(Oc2ccnc(C(=O)NCO)c2)cc1F [Example M-3]	7.7	25.6	19	12	–	–	–	–	–	–	–	–	–
NC(=O)c1cc(Oc2ccc(NC(=O)Nc3ccc(Cl)c(C(F)(F)F)c3)c(F)c2)cc[n+]1[O-] [Example M-5, 4{4-[3-(4-chloro-3-trifluoromethylphenyl)-ureido]-3-fluorophenoxy}-1-hydroxy-pyridine-2-carboxylic acid amide]	–	–	–	–	–	75.5	51800	3140	very similar to regorafenib	42	25	25.1	41.6
